Data as given in US20220356169A1, “TETRAZINES FOR HIGH CLICK RELEASE SPEED AND YIELD” (priority 2019, published 2022).

Assays:
[1] = Second-order rate constant of the IEDDA reaction with TCO 3.2, stopped-flow UV-Vis, pseudo first-order conditions; format: physicochemical; details: 25% MeCN/PBS at 20° C.; mean ± SD (n = 5)
Protocol: (§1) The second-order rate constant of the IEDDA reaction between model TCO 3.2 and activators 2.7 or 2.8 in MeCN at 20° C. was determined (n=1) by UV-Vis spectrometry under second-order conditions. A cuvette was filled with a solution of activator (3 mL 0.083 mM in MeCN), and equilibrated at 20° C. Next, a solution of TCO 3.2 (10.0 μL, 25 mM in DMSO) was added. The absorption at 540 nm was measured every second in a time course experiment. From the decay of this absorption, the conversion x was calculated. The second-order rate constant k2 was determined from the slope of the curve of a plot of 1/c-1/c0 versus time. The second-order rate constant of the IEDDA reaction between model TCO 3.2 and activators 2.7, 2.8, 2.14, 2.16, or 2.17 in 25% MeCN/PBS at 20° C. was determined (n=5) by stopped-flow UV-Vis spectrometry under pseudo first-order conditions. Tetrazine solutions (0.25 mM in 25% MeCN/PBS) and TCO 3.2 (3.45 mM in 25% MeCN/PBS) were mixed in a volume ratio of 1:1, resulting in a concentration of 0.125 mM and 1.73 mM, respectively. The absorption at 520 nm was measured every 50 ms, and from the decay of this absorption, the pseudo first-order rate constant k1′ was determined by a nonlinear Simplex regression analysis of the data points using BioKine software. The second-order rate constant k2 was calculated: k2=k1′/c,TCO. As expected for a cycloaddition reaction, the reactivity in PBS is much higher than in MeCN, and importantly the tetrazines of the invention are at least 1 order of magnitude more reactive than the known and high-releasing 3,6-bismethyl-tetrazine (2.17), while giving similar release yields (see Example 7).

[2] = Activator stability in PBS at rt (UV decay at 520 nm); format: physicochemical; details: mean ± SD (n = 3)
Protocol: The assessment of activator stability was performed in PBS at rt. Solutions in DMSO (2.5 mM, 20 μL) were diluted with PBS (3.00 mL), filtered, and incubated at rt. The decrease of the absorption band at 520 nm was monitored using UV spectroscopy.

[3] = tested on: ADC AVP0458-TCO-MMAE; experiment: Triggered drug (MMAE) release from ADC in 50% mouse plasma, HPLC-SIM-MS; details: for MMAE release from ADC AVP0458-TCO-MMAE, Release (%) / MMAE release level, in words: 50% mouse plasma, 37° C.; for MMAE release level, in words: after 24h incubation
Protocol: In a 1.5 mL vial, the following was combined: 650 μL mouse plasma, 600 μL PBS, 20 μL ADC (1.62 μg/μL in PBS) and 7.5 μL d8-MMAE solution (0.167 μg/μL, internal standard). Next, aliquots of 20 μL were prepared to which 5.2 μL of a tetrazine solution (0.25 mM in 1:1 DMSO/H2O) was added and the solution was incubated at 37° C. At various times, 100 μL of cold MeCN was added to the aliquot and the mixture was vortexed, stored at 4° C. for 30 min. and centrifuged. 20 μL of supernatant was taken and combined with 100 μL of 1% formic acid (aq) solution. This sample was analysed with HPLC-SIM-MS to quantify the ratio of free MMAE and d8-MMAE, which is a measure of the release yield.

[4] = Cell proliferation assay (MTT); format: cell-based; details: human, 3 days incubation, mean ± SEM (n = 6), read-out: LS174T cell viability (%); for viability at 72 h, 0.01 μM: 0.01 μM activator; for viability at 72 h, 0.1 μM: 0.1 μM activator; for viability at 72 h, 1 μM: 1 μM activator
Protocol: The human colon carcinoma LS174T cell line was obtained from the American Type Culture Collection and cultured in RPMI-1640 medium supplemented with 2 mM glutamine and 10% heat inactivated fetal calf serum. Twenty-four hours prior to the experiment, the cells were plated in 96-well plates at a 5000 cells/well density. The cells were then incubated with serial dilutions (10 nM-1 μM; n=6) of activators 2.7, 2.8, 2.14, 2.16, 2.17, 2.18 and 2.19 in culture medium for 72h at 37° C. The % cell proliferation was assessed by an MTT assay, in comparison to cells incubated in culture medium without activator. No toxicity was observed when the LS174T cells were incubated with the tested activators (and possible metabolites formed in the presence of serum) for 3-days at a 0.01-1 μM activator concentration.

[5] = tested on: TCO Trigger on tumor-bound ADC; experiment: In vivo reactivity between ADC AVP0458-TCO-MMAE and tetrazine activators (tumor activation study); set-up: species or system mice; details: higher dose (dose 5×: ca. 16.7 μmol/kg)
Protocol: (§2) Female nude Balb/C mice were subcutaneously inoculated ca. 1×10^6 LS174T cells in the hind limb. Biodistribution studies started when the tumors reached 0.1-0.2 cm^3 size. Experiments were carried out to evaluate the reactivity between the TCO Trigger on tumor-bound ADC and activators 2.7, 2.8, 2.14 and 2.16 in LS174T xenografts, as previously performed for other activators [Rossin et al Nature Communications 2018, 9, 1484]. The activators were administered at a 20- to 100-lower dose than that used in previous activation and therapy studies (ca. 0.335 mmol/kg). […] Groups of tumor bearing mice (n=4) were injected with ^125I-labeled ADC (2 mg/kg) followed 48 h later by the activators (dose 1×: ca. 3.3 μmol/kg; dose 5×: ca. 16.7 μmol/kg) and, after 1 h, by [^111In]In-2.20 (ca. 0.33 μmol/kg). One group was injected with the same amount of ^125I-labeled ADC followed only by ^111In-2.20 49 h later. One group was injected only with ^111In-2.20 (non-specific probe binding). All mice were euthanized 23 h post-probe injection and the ^125I and ^111In uptakes in tumors were measured by γ-counting.

[6] = tested on: LS174T xenografts; experiment: MMAE measurement in tumors; format: in vivo, mice; details: 24 h after administration of activator at dose 1×
Protocol: as §2
The concentration of MMAE released in tumors was measured as previously reported [Rossin et al Nature Communications 2018, 9, 1484]. […] For this reason, activator 2.16 was selected for a therapy study in combination with the click-cleavable ADC. At the doses of tc-ADC (4 mg/kg) and 2.16 (dose 10×; 33.5 μmol/kg) used for therapy study, a high level of 339±45 nM free MMAE was detected in tumors.

[7] = Second-order rate constant of the IEDDA reaction with TCO 3.2, UV-Vis under second-order conditions in MeCN; format: physicochemical; details: MeCN at 20° C.; n = 1
Protocol: as §1, with “As expected for a cycloaddition reaction, the reactivity in PBS is much higher than in MeCN, and importantly the tetrazines of the invention are at least 1 order of magnitude more reactive than the known and high-releasing 3,6-bismethyl-tetrazine (2.17), while giving similar release yields (see Example 7).” left out

[8] = Triggered release of Construct-A from TCO trigger, HPLC-MS/PDA
Protocol: At the specified time point, the sample was analyzed by HPLC-MS/PDA, and the release yield was determined from the observed amounts of IEDDA adducts, elimination product, and/or released Construct. In case the release was not complete, the sample was incubated at 37° C. for additional time and analyzed once again.

[9] = tested on: 125I-labeled CC49 conjugate; experiment: Triggered radiolabel release from 125I-labeled CC49-3.6 conjugate, SEC; details: 2h in PBS at 37° C.
Protocol: The anti-TAG72 mAb CC49 was conjugated with 3.6 in borate buffer pH 8.0 (containing 1 mM DTPA) using 3 equiv. TCEP. After conjugation, the product was dialyzed extensively (20 kDa MW cut-off membrane) in PBS. The CC49-3.6 the conjugate was radiolabeled using a previously described ^125I-labeled tetrazine [Albu et al., Bioconjug Chem 2016, 27, 207-216] in PBS at 37° C. for 1 h. Due to the higher reactivity of the TCO tag on the outside vs the cleavable TCO trigger on the inside the radiolabeling occurred selectively via the TCO tag. The crude labeling mixture was purified using a desalting cartridge (Zeba spin column, 40 kDa MW cut-off) then the isolated ^125I-labeled CC49 conjugate was incubated with activator 2.7 for 2h in PBS at 37° C., resulting in reaction with the TCO trigger, yielding 88.6% radiolabel release, as confirmed by SEC analysis.

[10] = 2 min after reaction with activator

Structure (SMILES): O=C(CCCC(=O)Nc1cccnc1-c1nnc(-c2ncccc2NC(=O)CCCC(=O)NCCOCCOCCOCCOCCOCCOCCOCCOCCOCCO)nn1)NCCOCCOCCOCCOCCOCCOCCOCCOCCOCCO [2.14, N^1,N^1′-(2,2′-(1,2,4,5-Tetrazine-3,6-diyl)bis(pyridine-3,2-diyl))bis(N^5-(29-hydroxy-3,6,9,12,15,18,21,24,27-nonaoxanonacosyl)glutaramide)]
- Calculated k2 values for the reaction between tetrazine activators and TCO 3.2 in PBS [1]: 748 ± 20 M⁻¹ s⁻¹
- half-life at 16.6 µM [2]: 8.7 ± 0.1 h
- MMAE release from ADC AVP0458-TCO-MMAE, Release (%) [3, 10]: 0.6%
- MMAE release from ADC AVP0458-TCO-MMAE, Release (%) ([3]; 10 min): 2.1%
- MMAE release from ADC AVP0458-TCO-MMAE, Release (%) ([3]; 1 h): 16.6%
- MMAE release from ADC AVP0458-TCO-MMAE, Release (%) ([3]; 5 h): 49.9%
- MMAE release from ADC AVP0458-TCO-MMAE, Release (%) ([3]; 24 h, mean ± SD (n = 3)): 80.5 ± 0.3%
- MMAE release level, in words [3]: as high as that obtained with the less reactive 2.17
- viability at 72 h, 0.01 μM [4]: 107 ± 3%
- viability at 72 h, 0.1 μM [4]: 104 ± 2.7%
- viability at 72 h, 1 μM [4]: 97 ± 2.5%
- on-tumor reaction yield with the ADC (tumor activation) [5]: 94.2±1.8%
- free MMAE in tumors, comparison of activators [6]: No difference

Structure (SMILES): Oc1cccnc1-c1nnc(-c2ncccc2O)nn1 [2.7, 2,2′-(1,2,4,5-Tetrazine-3,6-diyl)bis(pyridin-3-ol)]
- Calculated k2 values for the reaction between tetrazine activators and TCO 3.2 in PBS [1]: 397 ± 4 M⁻¹ s⁻¹
- Calculated k2 values for the reaction between tetrazine activators and TCO 3.2 in MeCN [7]: 68 M⁻¹ s⁻¹
- half-life at 16.6 µM [2]: 37.8 ± 0.8 h
- MMAE release from ADC AVP0458-TCO-MMAE, Release (%) [3, 10]: 53.8%
- MMAE release from ADC AVP0458-TCO-MMAE, Release (%) ([3]; 10 min): 80.1%
- MMAE release from ADC AVP0458-TCO-MMAE, Release (%) ([3]; 1 h): 80.9%
- MMAE release from ADC AVP0458-TCO-MMAE, Release (%) ([3]; 5 h): 83.8%
- MMAE release from ADC AVP0458-TCO-MMAE, Release (%) ([3]; 24 h, mean ± SD (n = 3)): 98.4 ± 0.3%
- MMAE release level, in words [3]: as high as that obtained with the less reactive 2.17
- MMAE release speed, in words ([3]; compared with 2.17): faster
- Construct release % ([8]; TCO 3.10, doxorubicin, 18 h, 37° C.): 18 h: 100%
- Construct release % ([8]; TCO 3.10, released construct doxorubicin, 5 min): 5 min: 52%
- Construct release % ([8]; TCO 3.11, released construct doxorubicin, 5 min): 5 min: 100%
- Construct release % ([8]; TCO 3.2, dimethylamine, 2 h, incubated at 37° C.): 2 h: 80%
- Construct release % ([8]; TCO 3.2, dimethylamine, 20 h, incubated at 37° C.): 20 h: 95%
- Construct release % ([8]; TCO 3.2, released construct dimethylamine, 5 min, MeCN/PBS): 5 min: 50%
- Construct release % ([8]; TCO 3.23, released construct dimethylamine, 5 min): 5 min: 100%
- Construct release % ([8]; TCO 3.32, released construct dimethylamine, 5 min): 5 min: 100%
- Construct release % ([8]; TCO 3.7, 3-phenylpropan-1-ol, 24 h, 37° C.): 24 h: 88%
- Construct release % ([8]; TCO 3.7, 3-phenylpropan-1-ol, 48 h, 37° C.): 48 h: 95%
- Construct release % ([8]; TCO 3.7, released construct 3-phenylpropan-1-ol, 5 min): 5 min: 74%
- Construct release % ([8]; TCO 3.8, benzoic acid, 24 h, 37° C.): 24 h: 90%
- Construct release % ([8]; TCO 3.8, released construct benzoic acid, 5 min): 5 min: 45%
- Construct release % ([8]; TCO 3.9, phenol, 24 h, 37° C.): 24 h: 93%
- Construct release % ([8]; TCO 3.9, released construct phenol, 5 min): 5 min: 50%
- radiolabel release [9]: 88.6%
- viability at 72 h, 0.01 μM [4]: 93.6 ± 4.1%
- viability at 72 h, 0.1 μM [4]: 91.5 ± 4.4%
- viability at 72 h, 1 μM [4]: 98.2 ± 4.6%
